≈ marks a conversion by molar mass, not a printed value.
Legend:
[1] = system: Mycobacterium tuberculosis; test: Antimycobacterial activity against rifampicin-resistant Mycobacterium tuberculosis; type: functional
[2] = system: Mycobacterium tuberculosis; test: Antimycobacterial activity against isoniazid-resistant Mycobacterium tuberculosis; type: functional

With CC(=O)c1c(C)[n+]([O-])c2ccc(Cl)cc2[n+]1[O-] the MIC [1] was no more than 0.39 µg/mL and the MIC [2] was 1.56 µg/mL (≈ 6.17 µM).
